In patent US20240165123A1, “USE OF A COMPOUND CONTAINING A TRICYCLIC HETEROARYL GROUP” (CSPC Zhongqi Pharmaceutical Technology (Shijiazhuang) Co., …, priority 2021, published 2024):

Tested on: IMQ-induced mouse psoriasis model
Test: Pharmacodynamic test in the IMQ-induced mouse psoriasis model
Format: in vivo, female Balb/c mice
Parameters: key to Skin PASI score Erythema / Skin PASI score Scaling / Skin PASI score Thickness: PASI component score, 0-4 points; key to Skin PASI Total Score: sum of erythema, scaling, thickness scores (each 0-4); key to Skin pathological score: sum of histopathology criterion points
Conditions: for Epidermal thickness / IL-6 content in skin (ELISA) / Skin pathological score / Spleen weight / Spleen weight/body weight (spleen index) / TNF-alpha content in skin (ELISA): after 14 days of treatment
From the text: The purpose of this test was to evaluate the pharmacodynamics of Compound (I) in the IMQ (5% imiquimod cream cream)-induced mouse psoriasis model. One of the clinical adverse effects of imiquimod is to induce the onset of psoriasis.
• Test medicament: Compound (I) • Positive control medicament: dexamethasone (Dex) • Vehicle: 0.4% Tween 80/0.5% methylcellulose.
• female Balb/c mice aged 5-6 weeks, number: 70.
The animals were randomly divided into seven groups according to the body weights on the day before the start of the experiment.
The animals were shaved on their back one day before applying the medicament, forming a skin exposure area having a size of about 2 cm×3 cm. The mice were induced by IMQ, and applied with 62.5 mg of 5% imiquimod cream on the bare back and the right ear at regular intervals every day for 14 days. Mice in the normal control group were applied with vaseline on the bare back and the right ear at regular intervals every day.
The skin thickness was measured daily from the first day of the test until the end of the test.
The skin thickness measurement method was as follows: the back skin and the subcutaneous tissue of the mouse were pinched with the thumb and the index finger of the left hand in the same direction as the mouse body; the skinfold thickness was measured 1 cm away from the pinched part of the left hand (near the center of the molding part) with a digital thickness gauge (with millesimal reading) held in the right hand (model BK-3281, manufacturer: Shanghai Niuhui). The thickness was in mm, and the actual thickness was the half of the measured thickness (the skin thickness=the measured value/2).
The ear thickness was measured daily (at the center of the auricle).
Skin photographs were taken daily from the first day of the test until the end of the test.
The clinical symptoms were evaluated with the PASI evaluation standard from three indicators of the erythema (Erythema), the scale (Scaling) and the skin thickness (Thickness), and scored with 0-4 points. The total score was obtained by summing the three scores. The PASI evaluation standard was as follows: 0, asymptomatic; 1, mild; 2, moderate; 3, severe; 4, extremely severe.
Erythema: 0—no erythema visible; 1—light red; 2—red; 3—dark red; 4—extremely dark red.
Scaling: 0—no visible scale on the skin surface; 1—part of the skin lesion surface covered with scales; 2—most of the skin lesion surface covered with scales; 3—almost all of the skin lesion region covered with scales; 4—all of the skin lesion region covered with scales.
Dryness and pruritus are not included in the total score.
On the 14th day of the test, the spleen weight was collected.
After the test, all mice were euthanized by excessive inhalation of carbon dioxide. The skin was collected and divided into four parts, one of which was fixed in a tissue fixative solution for 24 hours for the pathological is detection. It was dehydrated, then embedded in paraffin and made into 4-micron sections. Skin sections were stained with hematoxylin eosin to observe the infiltration of the stratum corneum, the epidermal layer, the dermis layer and the inflammatory cell. When measuring the thickness of the epidermal layer, the stained skin sections were scanned with a Leca Aperio CS2 scanner at 200×magnification, and then the histopathological changes were observed and scored.
The specific criteria of the pathological score were as follows: munro microabscess found in the epidermal layer 2.0 points; hyperkeratosis 0.5 points; parakeratosis 1.0 points; the thinning or disappearing of the granular layer 1.0 points; the thickening of acanthosis 1.0 points; the extension and fluctuation of cuticular process 0.5, 1.0 and 1.5 points respectively according to the mild, moderate and severe degrees. […]

NC(=O)c1cnc(Nc2ccc3c(c2)OC[C@H]2CN(S(=O)(=O)C4CC4)CCN32)nc1NC1CC1 [Compound (I), (R)-4-(cyclopropylamino)-2-((3-(cyclopropylsulfonyl)-1,2,3,4,4a,5-hexahydrobenzo[b]pyrazolo[1,2-d][1,4]oxazin-8-yl)amino)pyrimidine-5-arboxamide]
Ear thickness Left (3 mpk PO bid, 1st Day): 0.15 ± 0.00 mm
Ear thickness Right (3 mpk PO bid, 1st Day): 0.15 ± 0.00 mm
Ear thickness Right-Left (3 mpk PO bid, 1st Day): 0.00 ± 0.00 mm
Skin PASI Total Score (3 mpk PO bid, 1st Day): 0.00 ± 0.00
Skin PASI score Erythema (3 mpk PO bid, 1st Day): 0.00 ± 0.00
Skin PASI score Scaling (3 mpk PO bid, 1st Day): 0.00 ± 0.00
Skin PASI score Thickness (3 mpk PO bid, 1st Day): 0.00 ± 0.00
Skin thickness (3 mpk PO bid, 1st Day): 0.32 ± 0.00 mm
Ear thickness Left (3 mpk PO bid, 14th Day): 0.16 ± 0.00 mm
Ear thickness Right (3 mpk PO bid, 14th Day): 0.48 ± 0.01 mm
Ear thickness Right-Left (3 mpk PO bid, 14th Day): 0.32 ± 0.01 mm
Skin PASI Total Score (3 mpk PO bid, 14th Day): 8.10 ± 0.23
Skin PASI score Erythema (3 mpk PO bid, 14th Day): 3.00 ± 0.00
Skin PASI score Scaling (3 mpk PO bid, 14th Day): 2.30 ± 0.15
Skin PASI score Thickness (3 mpk PO bid, 14th Day): 2.80 ± 0.13
Skin thickness (3 mpk PO bid, 14th Day): 0.51 ± 0.01 mm
Epidermal thickness (3 mpk PO bid): 136.10 ± 5.96 μm
IL-6 content in skin (ELISA) (3 mpk PO bid): 554.74 ± 88.14 pg/g
Skin pathological score (3 mpk PO bid): 7.75 ± 0.39
Spleen weight (3 mpk PO bid): 231.44 ± 12.72 mg
Spleen weight/body weight (spleen index) (3 mpk PO bid): 14.46 ± 0.71 mg/g
TNF-alpha content in skin (ELISA) (3 mpk PO bid): 1191.74 ± 124.81 pg/g
Ear thickness Left (10 mpk PO bid, 1st Day): 0.14 ± 0.00 mm
Ear thickness Right (10 mpk PO bid, 1st Day): 0.14 ± 0.00 mm
Ear thickness Right-Left (10 mpk PO bid, 1st Day): 0.00 ± 0.00 mm
Skin PASI Total Score (10 mpk PO bid, 1st Day): 0.00 ± 0.00
Skin PASI score Erythema (10 mpk PO bid, 1st Day): 0.00 ± 0.00
Skin PASI score Scaling (10 mpk PO bid, 1st Day): 0.00 ± 0.00
Skin PASI score Thickness (10 mpk PO bid, 1st Day): 0.00 ± 0.00
Skin thickness (10 mpk PO bid, 1st Day): 0.32 ± 0.00 mm
Ear thickness Left (10 mpk PO bid, 14th Day): 0.15 ± 0.00 mm
Ear thickness Right (10 mpk PO bid, 14th Day): 0.44 ± 0.00 mm
Ear thickness Right-Left (10 mpk PO bid, 14th Day): 0.28 ± 0.00 mm
Skin PASI Total Score (10 mpk PO bid, 14th Day): 7.70 ± 0.60
Skin PASI score Erythema (10 mpk PO bid, 14th Day): 2.90 ± 0.10
Skin PASI score Scaling (10 mpk PO bid, 14th Day): 2.40 ± 0.27
Skin PASI score Thickness (10 mpk PO bid, 14th Day): 2.40 ± 0.27
Skin thickness (10 mpk PO bid, 14th Day): 0.53 ± 0.02 mm
Epidermal thickness (10 mpk PO bid): 131.63 ± 7.15 μm
IL-6 content in skin (ELISA) (10 mpk PO bid): 641.83 ± 96.28 pg/g
Skin pathological score (10 mpk PO bid): 7.45 ± 0.80
Spleen weight (10 mpk PO bid): 182.01 ± 9.11 mg
Spleen weight/body weight (spleen index) (10 mpk PO bid): 11.71 ± 0.56 mg/g
TNF-alpha content in skin (ELISA) (10 mpk PO bid): 1432.02 ± 152.77 pg/g
Ear thickness Left (30 mpk PO bid, 1st Day): 0.14 ± 0.00 mm
Ear thickness Right (30 mpk PO bid, 1st Day): 0.14 ± 0.00 mm
Ear thickness Right-Left (30 mpk PO bid, 1st Day): 0.00 ± 0.00 mm
Skin PASI Total Score (30 mpk PO bid, 1st Day): 0.00 ± 0.00
Skin PASI score Erythema (30 mpk PO bid, 1st Day): 0.00 ± 0.00
Skin PASI score Scaling (30 mpk PO bid, 1st Day): 0.00 ± 0.00
Skin PASI score Thickness (30 mpk PO bid, 1st Day): 0.00 ± 0.00
Skin thickness (30 mpk PO bid, 1st Day): 0.32 ± 0.00 mm
Ear thickness Left (30 mpk PO bid, 14th Day): 0.16 ± 0.00 mm
Ear thickness Right (30 mpk PO bid, 14th Day): 0.41 ± 0.01 mm
Ear thickness Right-Left (30 mpk PO bid, 14th Day): 0.26 ± 0.01 mm
Skin PASI Total Score (30 mpk PO bid, 14th Day): 5.50 ± 0.31
Skin PASI score Erythema (30 mpk PO bid, 14th Day): 2.90 ± 0.10
Skin PASI score Scaling (30 mpk PO bid, 14th Day): 1.20 ± 0.13
Skin PASI score Thickness (30 mpk PO bid, 14th Day): 1.40 ± 0.16
Skin thickness (30 mpk PO bid, 14th Day): 0.50 ± 0.01 mm
Epidermal thickness (30 mpk PO bid): 121.75 ± 8.17 μm
IL-6 content in skin (ELISA) (30 mpk PO bid): 638.09 ± 59.63 pg/g
Skin pathological score (30 mpk PO bid): 5.55 ± 0.90
Spleen weight (30 mpk PO bid): 146.81 ± 7.71 mg
Spleen weight/body weight (spleen index) (30 mpk PO bid): 9.27 ± 0.47 mg/g
TNF-alpha content in skin (ELISA) (30 mpk PO bid): 1236.41 ± 100.8 pg/g
Ear thickness Left (60 mpk PO bid, 1st Day): 0.14 ± 0.00 mm
Ear thickness Right (60 mpk PO bid, 1st Day): 0.14 ± 0.00 mm
Ear thickness Right-Left (60 mpk PO bid, 1st Day): 0.00 ± 0.00 mm
Skin PASI Total Score (60 mpk PO bid, 1st Day): 0.00 ± 0.00
Skin PASI score Erythema (60 mpk PO bid, 1st Day): 0.00 ± 0.00
Skin PASI score Scaling (60 mpk PO bid, 1st Day): 0.00 ± 0.00
Skin PASI score Thickness (60 mpk PO bid, 1st Day): 0.00 ± 0.00
Skin thickness (60 mpk PO bid, 1st Day): 0.33 ± 0.01 mm
Ear thickness Left (60 mpk PO bid, 14th Day): 0.15 ± 0.00 mm
Ear thickness Right (60 mpk PO bid, 14th Day): 0.38 ± 0.01 mm
Ear thickness Right-Left (60 mpk PO bid, 14th Day): 0.22 ± 0.01 mm
Skin PASI Total Score (60 mpk PO bid, 14th Day): 4.60 ± 0.34
Skin PASI score Erythema (60 mpk PO bid, 14th Day): 2.00 ± 0.15
Skin PASI score Scaling (60 mpk PO bid, 14th Day): 1.20 ± 0.13
Skin PASI score Thickness (60 mpk PO bid, 14th Day): 1.40 ± 0.16
Skin thickness (60 mpk PO bid, 14th Day): 0.43 ± 0.02 mm
Epidermal thickness (60 mpk PO bid): 113.28 ± 6.95 μm
IL-6 content in skin (ELISA) (60 mpk PO bid): 499.72 ± 95.81 pg/g
Skin pathological score (60 mpk PO bid): 5.05 ± 0.88
Spleen weight (60 mpk PO bid): 125.73 ± 4.63 mg
Spleen weight/body weight (spleen index) (60 mpk PO bid): 8.01 ± 0.28 mg/g
TNF-alpha content in skin (ELISA) (60 mpk PO bid): 1188.81 ± 159.63 pg/g
